# PubChem BioAssay (NCI)
#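 Assay format: 96-well plates, 48-hour exposure. GI50: concentration for 50% inhibition of growth. TGI: concentration producing complete growth inhibition.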
# What was measured:
# Experiment in all cases: inhibition of tumour cell growth, NCI panel, 48 h
# SK-MEL-5 melanoma = tested on: SK-MEL-5 melanoma
# DU-145 prostate = tested on: DU-145 prostate
# MALME-3M melanoma = tested on: MALME-3M melanoma
# SK-MEL-2 melanoma = tested on: SK-MEL-2 melanoma
# RPMI-8226 leukemia = tested on: RPMI-8226 leukemia
# UO-31 renal = tested on: UO-31 renal
# RXF 393 renal = tested on: RXF 393 renal
# NCI-H226 lung = tested on: NCI-H226 lung
# CCRF-CEM leukemia = tested on: CCRF-CEM leukemia
# HS 578T breast = tested on: HS 578T breast
# SF-295 CNS = tested on: SF-295 CNS
# SW-620 colon = tested on: SW-620 colon
# U251 CNS = tested on: U251 CNS
# SN12C renal = tested on: SN12C renal
# MDA-MB-435 = tested on: MDA-MB-435
# IGROV1 ovarian = tested on: IGROV1 ovarian
# A549 NSCLC = tested on: A549 NSCLC
# SNB-75 CNS = tested on: SNB-75 CNS
# COLO 205 colon = tested on: COLO 205 colon
# A498 renal = tested on: A498 renal
# BT-549 breast = tested on: BT-549 breast
# MDA-MB-231 breast = tested on: MDA-MB-231 breast
# NCI/ADR-RES ovarian = tested on: NCI/ADR-RES ovarian
# HCT-15 colon = tested on: HCT-15 colon
# OVCAR-5 ovarian = tested on: OVCAR-5 ovarian
# UACC-62 melanoma = tested on: UACC-62 melanoma
# KM12 colon = tested on: KM12 colon
# SK-OV-3 ovarian = tested on: SK-OV-3 ovarian
# LOX IMVI melanoma = tested on: LOX IMVI melanoma
# NCI-H522 lung = tested on: NCI-H522 lung
# M14 melanoma = tested on: M14 melanoma
# 786-0 renal = tested on: 786-0 renal
# EKVX NSCLC = tested on: EKVX NSCLC
# HT29 colon = tested on: HT29 colon
# CAKI-1 renal = tested on: CAKI-1 renal
# TK-10 renal = tested on: TK-10 renal
# NCI-H23 lung = tested on: NCI-H23 lung
# OVCAR-3 ovarian = tested on: OVCAR-3 ovarian
# OVCAR-4 ovarian = tested on: OVCAR-4 ovarian
# MOLT-4 leukemia = tested on: MOLT-4 leukemia
# HCC-2998 colon = tested on: HCC-2998 colon
# HOP-92 NSCLC = tested on: HOP-92 NSCLC
# K-562 leukemia = tested on: K-562 leukemia
# PC-3 prostate = tested on: PC-3 prostate
# SK-MEL-28 melanoma = tested on: SK-MEL-28 melanoma
# HOP-62 NSCLC = tested on: HOP-62 NSCLC
# OVCAR-8 ovarian = tested on: OVCAR-8 ovarian
# MCF7 breast = tested on: MCF7 breast
# SR leukemia = tested on: SR leukemia
# NCI-H460 lung = tested on: NCI-H460 lung
# UACC-257 melanoma = tested on: UACC-257 melanoma
# HCT-116 colon = tested on: HCT-116 colon
# HL-60(TB) leukemia = tested on: HL-60(TB) leukemia
# SF-539 CNS = tested on: SF-539 CNS
# SNB-19 CNS = tested on: SNB-19 CNS
# T-47D breast = tested on: T-47D breast
# SF-268 CNS = tested on: SF-268 CNS
# ACHN renal = tested on: ACHN renal
compound,measurement,setting,value
CCC(=C(c1ccc(OCCN2CCCCCC2)cc1)c1ccc(OCCN2CCCCCC2)cc1)c1ccc(Cl)cc1,GI50,SK-MEL-5 melanoma,722 nM
same,TGI,SK-MEL-5 melanoma,1730 nM
same,GI50,DU-145 prostate,1360 nM
same,TGI,DU-145 prostate,5020 nM
same,GI50,MALME-3M melanoma,576 nM
same,TGI,MALME-3M melanoma,1270 nM
same,GI50,SK-MEL-2 melanoma,3960 nM
same,TGI,SK-MEL-2 melanoma,8630 nM
same,GI50,RPMI-8226 leukemia,749 nM
same,TGI,RPMI-8226 leukemia,1640 nM
same,GI50,UO-31 renal,1720 nM
same,TGI,UO-31 renal,6670 nM
same,GI50,RXF 393 renal,754 nM
same,TGI,RXF 393 renal,2250 nM
same,GI50,NCI-H226 lung,4480 nM
same,TGI,NCI-H226 lung,9560 nM
same,GI50,CCRF-CEM leukemia,657 nM
same,TGI,CCRF-CEM leukemia,1790 nM
same,GI50,HS 578T breast,727 nM
same,TGI,HS 578T breast,1870 nM
same,GI50,SF-295 CNS,644 nM
same,TGI,SF-295 CNS,1310 nM
same,GI50,SW-620 colon,555 nM
same,TGI,SW-620 colon,1210 nM
same,GI50,U251 CNS,597 nM
same,TGI,U251 CNS,1150 nM
same,GI50,SN12C renal,3440 nM
same,TGI,SN12C renal,8580 nM
same,GI50,MDA-MB-435,644 nM
same,TGI,MDA-MB-435,1360 nM
same,GI50,IGROV1 ovarian,1350 nM
same,TGI,IGROV1 ovarian,5210 nM
same,GI50,A549 NSCLC,1110 nM
same,TGI,A549 NSCLC,4210 nM
same,GI50,SNB-75 CNS,1970 nM
same,TGI,SNB-75 CNS,6850 nM
same,GI50,COLO 205 colon,586 nM
same,TGI,COLO 205 colon,1210 nM
same,GI50,A498 renal,4880 nM
same,TGI,A498 renal,9720 nM
same,GI50,BT-549 breast,3380 nM
same,TGI,BT-549 breast,7520 nM
same,GI50,MDA-MB-231 breast,2060 nM
same,TGI,MDA-MB-231 breast,7760 nM
same,GI50,NCI/ADR-RES ovarian,1930 nM
same,TGI,NCI/ADR-RES ovarian,6520 nM
same,GI50,HCT-15 colon,631 nM
same,TGI,HCT-15 colon,1450 nM
same,GI50,OVCAR-5 ovarian,3730 nM
same,TGI,OVCAR-5 ovarian,8250 nM
same,GI50,UACC-62 melanoma,664 nM
same,TGI,UACC-62 melanoma,1680 nM
same,GI50,KM12 colon,1060 nM
same,TGI,KM12 colon,3600 nM
same,GI50,SK-OV-3 ovarian,4230 nM
same,TGI,SK-OV-3 ovarian,8590 nM
same,GI50,LOX IMVI melanoma,502 nM
same,TGI,LOX IMVI melanoma,1010 nM
same,GI50,NCI-H522 lung,3540 nM
same,TGI,NCI-H522 lung,8210 nM
same,GI50,M14 melanoma,639 nM
same,TGI,M14 melanoma,1300 nM
same,GI50,786-0 renal,578 nM
same,TGI,786-0 renal,1180 nM
same,GI50,EKVX NSCLC,3520 nM
same,TGI,EKVX NSCLC,8010 nM
same,GI50,HT29 colon,652 nM
same,TGI,HT29 colon,1410 nM
same,GI50,CAKI-1 renal,1000 nM
same,TGI,CAKI-1 renal,4490 nM
same,GI50,TK-10 renal,4370 nM
same,TGI,TK-10 renal,9000 nM
same,GI50,NCI-H23 lung,3670 nM
same,TGI,NCI-H23 lung,8190 nM
same,GI50,OVCAR-3 ovarian,947 nM
same,TGI,OVCAR-3 ovarian,3010 nM
same,GI50,OVCAR-4 ovarian,3900 nM
same,TGI,OVCAR-4 ovarian,8710 nM
same,GI50,MOLT-4 leukemia,685 nM
same,TGI,MOLT-4 leukemia,1740 nM
same,GI50,HCC-2998 colon,553 nM
same,TGI,HCC-2998 colon,1130 nM
same,GI50,HOP-92 NSCLC,1340 nM
same,TGI,HOP-92 NSCLC,6070 nM
same,GI50,K-562 leukemia,424 nM
same,TGI,K-562 leukemia,1030 nM
same,GI50,PC-3 prostate,1700 nM
same,TGI,PC-3 prostate,6140 nM
same,GI50,SK-MEL-28 melanoma,623 nM
same,TGI,SK-MEL-28 melanoma,1200 nM
same,GI50,HOP-62 NSCLC,2640 nM
same,TGI,HOP-62 NSCLC,7580 nM
same,GI50,OVCAR-8 ovarian,4280 nM
same,TGI,OVCAR-8 ovarian,9410 nM
same,GI50,MCF7 breast,91.6 nM
same,TGI,MCF7 breast,785 nM
same,GI50,SR leukemia,585 nM
same,TGI,SR leukemia,1340 nM
same,GI50,NCI-H460 lung,645 nM
same,TGI,NCI-H460 lung,1250 nM
same,GI50,UACC-257 melanoma,651 nM
same,TGI,UACC-257 melanoma,1400 nM
same,GI50,HCT-116 colon,582 nM
same,TGI,HCT-116 colon,1360 nM
same,GI50,HL-60(TB) leukemia,683 nM
same,TGI,HL-60(TB) leukemia,1600 nM
same,GI50,SF-539 CNS,643 nM
same,TGI,SF-539 CNS,1370 nM
same,GI50,SNB-19 CNS,833 nM
same,TGI,SNB-19 CNS,2340 nM
same,GI50,T-47D breast,649 nM
same,TGI,T-47D breast,5310 nM
same,GI50,SF-268 CNS,2330 nM
same,TGI,SF-268 CNS,7470 nM
same,GI50,ACHN renal,1550 nM
same,TGI,ACHN renal,5790 nM
